Source: BindingDB's records for patent US20230322715 (University of California, 2023)

Columns and labels:
Test in all cases: In Vitro Inhibition Assay Method
[1] = target: T1, YTH domain-containing family protein 2 (Homo sapiens, UniProt Q9Y5A9)
T1 sequence (Q9Y5A9 whole entry): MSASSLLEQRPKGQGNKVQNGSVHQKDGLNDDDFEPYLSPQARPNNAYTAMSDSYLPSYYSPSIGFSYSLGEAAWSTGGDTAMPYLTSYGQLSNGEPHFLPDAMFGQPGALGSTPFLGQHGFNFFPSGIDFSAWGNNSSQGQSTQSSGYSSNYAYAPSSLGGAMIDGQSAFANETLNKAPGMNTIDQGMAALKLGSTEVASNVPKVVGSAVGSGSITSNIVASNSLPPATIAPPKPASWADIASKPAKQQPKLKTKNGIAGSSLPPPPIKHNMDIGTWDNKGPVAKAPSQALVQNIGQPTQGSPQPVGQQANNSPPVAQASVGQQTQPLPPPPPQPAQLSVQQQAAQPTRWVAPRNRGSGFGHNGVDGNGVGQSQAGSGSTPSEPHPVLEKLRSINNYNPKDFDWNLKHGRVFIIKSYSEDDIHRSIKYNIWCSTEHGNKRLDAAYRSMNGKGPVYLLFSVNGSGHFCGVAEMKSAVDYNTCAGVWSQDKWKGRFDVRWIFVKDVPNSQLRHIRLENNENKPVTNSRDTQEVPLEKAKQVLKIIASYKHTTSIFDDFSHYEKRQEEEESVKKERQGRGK
Protocol: (§1) Inhibitors were added in concentrations ranging from 0.008-40 μM; all inhibitors were dissolved in DMSO and added to a final concentration of 0.2% DMSO. […] After incubation at room temperature for 2 hours, the plates were left at 4 C. overnight (16 hours) to allow DFHBI-1T to bind to A7-Broccoli RNA. […] Sigmoidal dose-response curves were fitted in GraphPad Prism 6.

[2] = target: T2, YTH domain-containing family protein 1 (Homo sapiens, UniProt Q9BYJ9)
T2 sequence (Q9BYJ9 whole entry): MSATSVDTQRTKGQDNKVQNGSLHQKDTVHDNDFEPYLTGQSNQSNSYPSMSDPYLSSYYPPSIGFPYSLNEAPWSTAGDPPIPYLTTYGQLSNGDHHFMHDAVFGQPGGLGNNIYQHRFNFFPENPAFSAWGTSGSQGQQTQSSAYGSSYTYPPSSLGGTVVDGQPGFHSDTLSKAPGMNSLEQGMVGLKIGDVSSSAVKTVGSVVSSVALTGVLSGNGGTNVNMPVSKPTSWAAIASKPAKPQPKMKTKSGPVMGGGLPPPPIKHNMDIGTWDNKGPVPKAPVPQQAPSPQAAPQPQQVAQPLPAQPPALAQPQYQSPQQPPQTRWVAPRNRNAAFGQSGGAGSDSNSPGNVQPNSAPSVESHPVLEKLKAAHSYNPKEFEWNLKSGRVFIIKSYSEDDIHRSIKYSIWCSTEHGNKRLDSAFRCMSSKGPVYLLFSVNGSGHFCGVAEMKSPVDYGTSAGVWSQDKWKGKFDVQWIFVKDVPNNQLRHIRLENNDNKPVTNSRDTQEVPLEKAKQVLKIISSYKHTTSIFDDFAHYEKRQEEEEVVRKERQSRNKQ
Protocol: as §1

RNA demethylase ALKBH5 = RNA demethylase ALKBH5 (Homo sapiens, UniProt Q6P6C2)
RNA demethylase ALKBH5, sequence (Q6P6C2 whole entry): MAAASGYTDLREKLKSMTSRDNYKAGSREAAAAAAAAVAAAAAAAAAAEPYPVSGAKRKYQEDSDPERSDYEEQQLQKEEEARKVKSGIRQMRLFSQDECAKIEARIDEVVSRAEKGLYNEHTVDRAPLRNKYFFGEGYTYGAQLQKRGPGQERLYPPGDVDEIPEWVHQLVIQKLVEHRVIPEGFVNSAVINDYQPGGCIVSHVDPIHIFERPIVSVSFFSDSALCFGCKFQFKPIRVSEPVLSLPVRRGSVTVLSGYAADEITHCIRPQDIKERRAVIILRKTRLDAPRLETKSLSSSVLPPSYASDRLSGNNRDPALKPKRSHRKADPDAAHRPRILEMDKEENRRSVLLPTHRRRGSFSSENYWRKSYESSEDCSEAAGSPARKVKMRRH
Protocol: as §1

[3] = target: Alpha-ketoglutarate-dependent dioxygenase FTO (Homo sapiens, UniProt Q9C0B1)
Alpha-ketoglutarate-dependent dioxygenase FTO, sequence (Q9C0B1 whole entry): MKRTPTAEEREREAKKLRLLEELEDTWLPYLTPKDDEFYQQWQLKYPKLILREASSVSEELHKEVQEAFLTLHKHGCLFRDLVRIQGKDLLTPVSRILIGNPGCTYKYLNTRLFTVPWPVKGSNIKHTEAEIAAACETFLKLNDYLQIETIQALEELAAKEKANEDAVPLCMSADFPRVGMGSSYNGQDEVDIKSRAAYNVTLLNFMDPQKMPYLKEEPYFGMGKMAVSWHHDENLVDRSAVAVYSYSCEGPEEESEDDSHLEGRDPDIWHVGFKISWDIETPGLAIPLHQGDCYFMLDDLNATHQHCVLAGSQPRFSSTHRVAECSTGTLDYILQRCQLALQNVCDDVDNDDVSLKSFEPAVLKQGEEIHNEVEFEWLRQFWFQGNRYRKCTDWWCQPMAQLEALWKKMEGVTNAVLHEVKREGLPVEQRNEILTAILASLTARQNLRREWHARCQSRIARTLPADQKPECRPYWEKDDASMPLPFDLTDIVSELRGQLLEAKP
Protocol: as §1

CSc1ccccc1Nc1ccc(CNC2CC2)cn1 [US20230322715, Compound TR-YTH-11]
Ki [1]: 5.59 nM
Ki [2]: 13.4 nM

Cc1ccc(Nc2ccc(CN(C)C)cn2)cc1C [US20230322715, Compound TR-YTH-17]
Ki [1]: 0.333 nM
Ki [2]: 0.605 nM

Fc1ccc(Nc2ccc(CNC3CC3)cn2)c(F)n1 [US20230322715, Compound TR-YTH-14]
Ki [1]: 0.128 nM
Ki [2]: 0.399 nM

O=C(C1CC1)N1CCN(S(=O)(=O)c2ccc(OC(F)(F)F)cc2)CC1 [US20230322715, Compound TR-ALKBH5-41]
IC50 (RNA demethylase ALKBH5): 450 nM
IC50 [3]: > 40 µM

O=S(=O)(Nc1ccc(Cl)c(Cl)c1)c1ccc(OC(F)(F)F)cc1 [US20230322715, Compound TR-ALKBH5-33]
IC50 (RNA demethylase ALKBH5): 2600 nM
IC50 [3]: > 40 µM

COc1cc(Nc2ccc(CNC3CC3)cn2)cc(OC)c1 [US20230322715, Compound TR-YTH-13]
Ki [1]: 0.15 nM
Ki [2]: 0.473 nM
